# From US7452688B2, “Transformed cell with enhanced sensitivity to antifungal compound and use thereof” (Sumitomo Chemical Company, Limited, priority 2002, dated 2008)
# Legend:
# Type in all cases: cell-based, Saccharomyces cerevisiae
# [1] = tested on: transformed budding yeast AH22-HIK1; experiment: Antifungal compound sensitivity test, transformed budding yeast AH22-HIK1 (Example 9); details: 30° C. 23 hours
# Description: (§1) The transformed budding yeast AH22-HIK1 prepared in Example 8 was cultured while shaking at 30° C. for 24 hours in a Glu-Leu medium. As a control, the AH22 strain was similarly cultured while shaking at 30° C. for 24 hours in a Glu medium. The absorbance at 600 nm of a cell suspension of each of the grown transformed budding yeasts was measured, and a cell suspension diluted with each medium to the absorbance of 0.1 was prepared. Further, a cell suspension in which the aforementioned cell suspension of the transformed budding yeast AH22-HIK1 was diluted 50-fold with a Glu-Leu medium, and a cell suspension in which the aforementioned cell suspension of AH22 strain was diluted 50-fold with a Glu medium were prepared. A suspension in which each of compounds (1) to (3) was dissolved in dimethylsulfoxide (DMSO) to the concentration of 200 ppm, a solution in which each of Compounds (4) to (5) was dissolved in dimethylsulfoxide (DMSO) to the concentration of 600 ppm, and a solution in which each of Compounds (6) and (7) was dissolved in dimethylsulfoxide (DMSO) to the concentration of 20 ppm were prepared, and two microplates were prepared in which each 1.0 μL per well of the Compound solution and DMSO as a control were dispensed into two wells. In one microplate among them, each 100 μL of a cell suspension of the transformed budding yeast AH22-hiki which had been prepared by dilution as described above was dispensed, and cultured by allowing to stand at 30° C. for 23 hours. In another microplate, each 100 μL of the cell suspensions of control yeast AH22 strain which had been prepared by dilution as described above was dispensed, and cultured by allowing to stand at 30° C. for 27 hours. After culturing, the absorbance at 600 nm of each well was measured with a microplate reader.
# (§2) Degree of growths of both of the transformed budding yeasts cultured in the presence of Compounds (1) to (7) and budding yeast as a control therefor are shown in Table 3. Degrees of growths of both of the transformed budding yeasts and budding yeast as a control thereof or are shown by a relative value in percentage, letting the absorbance of 600 nm at the concentration of the Compound of 0 ppm to be […]. It was confirmed that an inhibiting degree of growth of TM182-HIK1 by each test substance was greater than an inhibiting degree of growth of AH22-HIK1 by each test substance, and the TM182-HIK1 was a transformed cell with the enhanced sensitivity to an antifungal-compound as compared with AH22-HIK1.
# [2] = tested on: transformed budding yeast TM182-StOS1; experiment: Antifungal compound sensitivity test of transformed budding yeast TM182-StOS1 (Example 16); details: for Degree of growth of budding yeast TM182-StOS1 Gal-Ura-Leu medium: control medium, 30° C. 49.5 hours; for Degree of growth of budding yeast TM182-StOS1 Gul-Ura-Leu medium: 30° C. 26.5 hours
# Description: Similarly, the transformed budding yeast TM182-StOS1 prepared in Example 15 was cultured at 30° C. for 18 hours in a Glu-Ura-Leu medium. The absorbance at 600 nm of the grown transformed budding yeast in a cell suspension was measured, and a cell suspension diluted with sterilized distilled water to the absorbance of 0.1 was prepared. Further, a cell suspension in which the transformed budding yeast TM182-StOS1 was diluted 50-fold with a Glu-Ura-Leu medium and, as a control, a cell suspension in which the yeast was diluted 50-fold with a Gal-Ura-Leu medium were prepared.
# A solution in which each of Compounds (1) to (3) was dissolved in dimethylsulfoxide (DMSO) to the concentration of 6 ppm, a solution in which each of Compounds (4) and (5) was dissolved in dimethylsulfoxide (DMSO) to the concentration of 2000 ppm, and a solution in which each of Compounds (6) and (7) was dissolved in dimethylsulfoxide (DMSO) to the concentration of 20 ppm were prepared, and two microplates were prepared in which each 2.0 μL per well of the Compound-DMSO solution and DMSO as a control were dispensed into 2 wells. In one microplate among them, each 100 μL of cell suspensions of the transformed budding yeast TM182-StOS1 which had been prepared by dilution with a Glu-Ura-Leu medium as described above was dispensed, and cultured by allowing to stand at 30° C. for 26.5 hours. In another microplate, as described above, as a control, each 100 μL of cell suspensions of the transformed budding yeast TM182-StOS1 which had been prepared by dilution with a Gal-Ura-Leu medium was dispensed, and cultured at 30° C. for 49.5 hours. After culturing, the absorbance at 600 nm of each well was measured with a microplate reader.
# (§3) A degree of growth of the transformed budding yeast is expressed as a relative value in percentage, letting the absorbance at 600 nm at the concentration of the Compound of 0 ppm to be 100. It was confirmed that an inhibiting degree of growth of the transformed budding yeast TM182-StOS1 by each test substance was grater than an inhibiting degree of growth of the transformed budding yeast AH22-StOS1 by each test substance, and the transformed budding yeast TM182-StOS1 was a transformed cell with the enhanced sensitivity to an antifungal compound as compared with the transformed budding yeast AH22-StOS1.
# [3] = tested on: transformed budding yeast AH22-StOS1; experiment: Antifungal compound sensitivity test, transformed budding yeast AH22-StOS1 (Example 16); details: 30° C. 28 hours, relative value in percentage
# Description: The transformed budding yeast AH22-StOS1 prepared in Example 15 was cultured while shaking at 30° C. for 18 hours in a Glu-Leu medium. As a control, the AH22 strain was similarly cultured while shaking at 30° C. for 18 hours in a Glu medium. The absorbance at 600 nm of each grown transformed budding yeast in a cell suspension was measured, and cell suspension diluted with sterilized distilled water to the absorbance of 0.1 was prepared. Further, a cell suspension in which the aforementioned cell suspension of the transformed budding yeast AH22-StOS1 was diluted 50-fold with a Glu-Leu medium, and a cell suspension in which the aforementioned cell suspension of the AH22 strain was diluted 50-fold with a Glu medium were prepared.
# A solution in which each of Compounds (1) to (3) was dissolved in dimethylsulfoxide (DMSO) to the concentration of 6 ppm, a solution in which each of Compounds (4) and (5) was dissolved in dimethylsulfoxide (DMSO) to the concentration of 2000 ppm, and a solution in which Compounds (6) and (7) was dissolved in dimethylsulfoxide (DMSO) to the concentration of 20 ppm were prepared, and two microplates were prepared in which each 1.0 μL per well of the Compound solution and DMSO as a control were dispensed. In one microplate among them, each 100 μL of cell suspensions of the transformed budding yeast AH22-StOS1 which had been prepared by dilution as described above was dispensed, and cultured by allowing to stand at 30° C. for 28 hours. In another microplate, each 100 μL of cell suspensions of the control yeast AH22 strain which had been prepared by dilution as described above was dispensed, and cultured by allowing to stand at 30° C. for 24.5 hours. After culturing, the absorbance at 600 nm of each well was measured with a microplate reader.
# as §3
# [4] = tested on: AH22 strain; experiment: Antifungal compound sensitivity test, control yeast AH22 strain (Example 9); details: 30° C. 27 hours
# Description: as §1, §2
structure (smiles),measurement,setting,value
"CC12CC1(C)C(=O)N(c1cc(Cl)cc(Cl)c1)C2=O (centres unmarked) [Compound (1), Procymidone]",Degree of growth of budding yeast (%) AH22-HIK1 Glu-Leu medium,[1]; final concentration 2.0 ppm,89%
same,Degree of growth of budding yeast TM182-StOS1 Gal-Ura-Leu medium,[2]; final concentration 0.6 ppm,101%
same,Degree of growth of budding yeast TM182-StOS1 Gul-Ura-Leu medium,[2]; final concentration 0.6 ppm,67%
same,Degree of growth of budding yeast AH22-StOS1 Glu-Leu medium,[3]; final concentration 0.6 ppm,101%
same,Degree of growth of budding yeast (%) AH22 Glu medium,[4]; final concentration 2.0 ppm,85%
"CC(C)NC(=O)N1CC(=O)N(c2cc(Cl)cc(Cl)c2)C1=O [Compound (2), Iprodione]",Degree of growth of budding yeast (%) AH22-HIK1 Glu-Leu medium,[1]; final concentration 2.0 ppm,84%
same,Degree of growth of budding yeast TM182-StOS1 Gal-Ura-Leu medium,[2]; final concentration 0.6 ppm,97%
same,Degree of growth of budding yeast TM182-StOS1 Gul-Ura-Leu medium,[2]; final concentration 0.6 ppm,23%
same,Degree of growth of budding yeast AH22-StOS1 Glu-Leu medium,[3]; final concentration 0.6 ppm,100%
same,Degree of growth of budding yeast (%) AH22 Glu medium,[4]; final concentration 2.0 ppm,96%
"C=CC1(C)OC(=O)N(c2cc(Cl)cc(Cl)c2)C1=O (centres unmarked) [Compound (3), Vinclozolin]",Degree of growth of budding yeast (%) AH22-HIK1 Glu-Leu medium,[1]; final concentration 2.0 ppm,104%
same,Degree of growth of budding yeast TM182-StOS1 Gal-Ura-Leu medium,[2]; final concentration 0.6 ppm,94%
same,Degree of growth of budding yeast TM182-StOS1 Gul-Ura-Leu medium,[2]; final concentration 0.6 ppm,19%
same,Degree of growth of budding yeast AH22-StOS1 Glu-Leu medium,[3]; final concentration 0.6 ppm,98%
same,Degree of growth of budding yeast (%) AH22 Glu medium,[4]; final concentration 2.0 ppm,99%
"O=[N+]([O-])c1c(Cl)c(Cl)c(Cl)c(Cl)c1Cl [Compound (4), Quintozene]",Degree of growth of budding yeast (%) AH22-HIK1 Glu-Leu medium,[1]; final concentration 6.0 ppm,92%
same,Degree of growth of budding yeast TM182-StOS1 Gal-Ura-Leu medium,[2]; final concentration 20 ppm,99%
same,Degree of growth of budding yeast TM182-StOS1 Gul-Ura-Leu medium,[2]; final concentration 20 ppm,7%
same,Degree of growth of budding yeast AH22-StOS1 Glu-Leu medium,[3]; final concentration 20 ppm,91%
same,Degree of growth of budding yeast (%) AH22 Glu medium,[4]; final concentration 6.0 ppm,97%
"COP(=S)(OC)Oc1c(Cl)cc(C)cc1Cl [Compound (5), Tolclofos-methyl]",Degree of growth of budding yeast (%) AH22-HIK1 Glu-Leu medium,[1]; final concentration 6.0 ppm,99%
same,Degree of growth of budding yeast TM182-StOS1 Gal-Ura-Leu medium,[2]; final concentration 20 ppm,74%
same,Degree of growth of budding yeast TM182-StOS1 Gul-Ura-Leu medium,[2]; final concentration 20 ppm,6%
same,Degree of growth of budding yeast AH22-StOS1 Glu-Leu medium,[3]; final concentration 20 ppm,76%
same,Degree of growth of budding yeast (%) AH22 Glu medium,[4]; final concentration 6.0 ppm,93%
"N#Cc1c[nH]cc1-c1cccc2c1OC(F)(F)O2 [Compound (6), Fludioxonil]",Degree of growth of budding yeast (%) AH22-HIK1 Glu-Leu medium,[1]; final concentration 0.2 ppm,98%
same,Degree of growth of budding yeast TM182-StOS1 Gal-Ura-Leu medium,[2]; final concentration 0.2 ppm,97%
same,Degree of growth of budding yeast TM182-StOS1 Gul-Ura-Leu medium,[2]; final concentration 0.2 ppm,6%
same,Degree of growth of budding yeast AH22-StOS1 Glu-Leu medium,[3]; final concentration 0.2 ppm,93%
same,Degree of growth of budding yeast (%) AH22 Glu medium,[4]; final concentration 0.2 ppm,101%
"N#Cc1c[nH]cc1-c1cccc(Cl)c1Cl [Compound (7), Fenpiclonil]",Degree of growth of budding yeast (%) AH22-HIK1 Glu-Leu medium,[1]; final concentration 0.2 ppm,102%
same,Degree of growth of budding yeast TM182-StOS1 Gal-Ura-Leu medium,[2]; final concentration 0.2 ppm,91%
same,Degree of growth of budding yeast TM182-StOS1 Gul-Ura-Leu medium,[2]; final concentration 0.2 ppm,9%
same,Degree of growth of budding yeast AH22-StOS1 Glu-Leu medium,[3]; final concentration 0.2 ppm,91%
same,Degree of growth of budding yeast (%) AH22 Glu medium,[4]; final concentration 0.2 ppm,89%
